Assay [1] relates to Rattus norvegicus. The experiment in a line: Antithrombotic activity in […]-induced venous thrombosis rat model assessed as thrombus inhibition rate at 1 mg/kg relative to control. It counts as functional.
Assay [2] is filed under the species Oryctolagus cuniculus. The experiment in a line: Anticoagulant activity in rabbit plasma assessed as T/C ratio of prothrombin time (reference value: 1). The class given is functional.
In assay [3] the test system is Rattus norvegicus. The assay is described as follows: Antithrombotic activity in FlC3-induced venous thrombosis rat model assessed as reduction in thrombus weight at 1 mg/kg (reference value: 9.7 +/- 1.62 mg). The class given is functional.
Assay [4] concerns the target T1, Coagulation factor X (Homo sapiens, UniProt P00742). The experiment in a line: Inhibition of factor Xa (unknown origin) assessed as residual enzymatic activity at 20 nM.
Assay [5] concerns the target T1, Coagulation factor X. The assay is described as follows: Inhibition of factor Xa (unknown origin).
The subject of assay [6] is Rattus norvegicus. The assay is described as follows: Antithrombotic activity in […]-induced venous thrombosis rat model assessed as reduction in thrombus weight at 1 mg/kg (reference value: 7.79 +/- 1.62 mg). The class given is functional.
In assay [7] the target is T1, Coagulation factor X. The assay is described as follows: Potency index, ratio of rivaroxaban IC50 to test compound IC50 for inhibition of factor Xa (unknown origin).
Assay [8] is filed under the species Oryctolagus cuniculus. The assay is described as follows: Anticoagulant activity in rabbit plasma assessed as increase in prothrombin time at 20 to 62500 nM. It counts as functional. Conditions: dose 20-62500 nM.
Assay [9] relates to Rattus norvegicus. The experiment in a line: Antithrombotic activity in […]-induced venous thrombosis rat model assessed as thrombus inhibition rate at 2 mg/kg relative to control. The class given is functional.
The test system of assay [10] is Rattus norvegicus. The experiment in a line: Antithrombotic activity in […]-induced venous thrombosis rat model assessed as thrombus inhibition rate at 0.5 mg/kg relative to control. The class given is functional.
For assay [11], the system named is Rattus norvegicus. The experiment in a line: Antithrombotic activity in […]-induced venous thrombosis rat model assessed as reduction in thrombus weight at 2 mg/kg (reference value: 9.7 +/- 1.62 mg). It counts as functional.
The subject of assay [12] is Rattus norvegicus. The assay is described as follows: Antithrombotic activity in […]-induced venous thrombosis rat model assessed as reduction in thrombus weight at 0.5 mg/kg (reference value: 9.7 +/- 1.62 mg). It counts as functional.

Structures are written as SMILES. pIC50: −log10 of the molar value. Active and inactive are the calls of the source. The calls are words filed in the database; no cut-off is given here.

T1 sequence (P00742 41-179 limits assumed): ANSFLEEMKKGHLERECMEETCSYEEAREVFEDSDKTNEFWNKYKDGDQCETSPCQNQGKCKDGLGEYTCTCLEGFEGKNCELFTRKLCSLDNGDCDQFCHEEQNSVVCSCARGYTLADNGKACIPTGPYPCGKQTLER
T1 sequence (P00742 235-488 limits assumed): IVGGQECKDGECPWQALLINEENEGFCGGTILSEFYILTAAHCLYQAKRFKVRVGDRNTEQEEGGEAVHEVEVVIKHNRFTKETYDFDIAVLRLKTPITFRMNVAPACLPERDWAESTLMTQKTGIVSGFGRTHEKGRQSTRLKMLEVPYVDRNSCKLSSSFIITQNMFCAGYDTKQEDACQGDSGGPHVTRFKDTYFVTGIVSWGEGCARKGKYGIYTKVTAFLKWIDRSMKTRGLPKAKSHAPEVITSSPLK

As to `O=C(NC[C@H]1CN(c2ccc(N3CCOCC3=O)cc2)C(=O)O1)c1ccc(Cl)s1` [RIVAROXABAN], the inhibition in vivo (commonly how much of the control response was suppressed) at 1 mg/kg in the assay with Rattus norvegicus [1] is 75%. Further, the T/C in the assay filed under Oryctolagus cuniculus [2] came out at 2.03. In addition, the figures for the Activity with Rattus norvegicus [3] and at Coagulation factor X [4] were 2.41 mg and 45.8%, respectively.
In the case of `COc1ccc(-n2cc(C#N)c3ncn(-c4ccc(N5CCC[C@H]5C(N)=O)cc4)c(=O)c32)cc1`, on Coagulation factor X [5], the pIC50 (in general, the negative decadic logarithm of the IC50, by convention in mol/L) was 8.43. For the same compound, the Activity amounted to 3.65 mg in the assay on Rattus norvegicus [6] and 45.8% at Coagulation factor X [4]. In addition, in the assay on Rattus norvegicus [1], the inhibition in vivo at 1 mg/kg stood at 53%. In addition, the T/C in the assay listed under Oryctolagus cuniculus [2] is 1.67. Further, on Coagulation factor X [7], the Ratio IC50 turned out to be 4.
Regarding `COc1ccc(-n2cc(C#N)c3ncn(-c4ccc(N5CCOCC5=O)cc4)c(=O)c32)cc1`, in the assay filed under Oryctolagus cuniculus [8], the result was Active. The T/C in the assay listed under Oryctolagus cuniculus [2] turned out to be 1.88. Further, the Activity on Coagulation factor X [4] came to 59.8%.
Regarding `COc1ccc(-n2cc(C(N)=O)c3ncn(-c4ccc(N5CCOCC5=O)cc4)c(=O)c32)cc1`, the inhibition in vivo at 2 mg/kg in the assay on Rattus norvegicus [9] stood at 73%. For the same compound, in the assay filed under Oryctolagus cuniculus [8], the outcome was Active. Also, the pIC50 at Coagulation factor X [5] was 8.80. In addition, the Activity was 2.73 mg in the assay with Rattus norvegicus [6]; 3.05 mg in the assay on Rattus norvegicus [3]; 2.6 mg in the assay with Rattus norvegicus [11]; 5.36 mg with Rattus norvegicus [12]; 46.7% on Coagulation factor X [4]. In the assay on Rattus norvegicus [1], the inhibition in vivo at 1 mg/kg came to 65%. Further, the T/C in the assay listed under Oryctolagus cuniculus [2] was 1.99. Also, on Coagulation factor X [7], the Ratio IC50 was 9. In the assay on Rattus norvegicus [10], the inhibition in vivo at 0.5 mg/kg was 45%.
With `COc1ccc(-n2nc(C(N)=O)c3c2C(=O)N(c2ccc(N4CCCCC4=O)cc2)CC3)cc1` [APIXABAN], the Activity with Rattus norvegicus [6] is on record as 3.24 mg; in the assay with Rattus norvegicus [12], 3.33 mg. For the same compound, in the assay with Rattus norvegicus [1], the inhibition in vivo at 1 mg/kg is 58%. In addition, the inhibition in vivo at 0.5 mg/kg in the assay with Rattus norvegicus [10] came out at 66%.

These data come from ChEMBL document CHEMBL5236667, “Synthesis of pyrrolo[3,2-d]pyrimidineone derivatives as novel FXa inhibitors” (Bioorg Med Chem Lett, 2023).
